Data as given in paper PMC6701155, “New perspectives on the plant PARP family: Arabidopsis PARP3 is inactive, and PARP1 exhibits predominant poly (ADP-ribose) polymerase activity in response to DNA damage” (BMC Plant Biology, 2019).

Assays:
AtPARP1 (TRXH-AtPARP1) = target: T1, AtPARP1 (TRXH-AtPARP1) (Arabidopsis thaliana, UniProt Q9ZP54); test: auto-PARylation assay, immunoblot with anti-pan-ADPR reagent; format: biochemical; conditions: 20 mM 3-AB, 1 mM NAD+, 500 nM broken DNA, 25 °C, pH 7.5, Mg2+
T1 construct: gene PARP1; full-length coding region in pET32a(+), N-terminal thioredoxin-His (TRXH) tag kept, E. coli Origami (DE3), nickel-purified
T1 sequence (Q9ZP54 1-983): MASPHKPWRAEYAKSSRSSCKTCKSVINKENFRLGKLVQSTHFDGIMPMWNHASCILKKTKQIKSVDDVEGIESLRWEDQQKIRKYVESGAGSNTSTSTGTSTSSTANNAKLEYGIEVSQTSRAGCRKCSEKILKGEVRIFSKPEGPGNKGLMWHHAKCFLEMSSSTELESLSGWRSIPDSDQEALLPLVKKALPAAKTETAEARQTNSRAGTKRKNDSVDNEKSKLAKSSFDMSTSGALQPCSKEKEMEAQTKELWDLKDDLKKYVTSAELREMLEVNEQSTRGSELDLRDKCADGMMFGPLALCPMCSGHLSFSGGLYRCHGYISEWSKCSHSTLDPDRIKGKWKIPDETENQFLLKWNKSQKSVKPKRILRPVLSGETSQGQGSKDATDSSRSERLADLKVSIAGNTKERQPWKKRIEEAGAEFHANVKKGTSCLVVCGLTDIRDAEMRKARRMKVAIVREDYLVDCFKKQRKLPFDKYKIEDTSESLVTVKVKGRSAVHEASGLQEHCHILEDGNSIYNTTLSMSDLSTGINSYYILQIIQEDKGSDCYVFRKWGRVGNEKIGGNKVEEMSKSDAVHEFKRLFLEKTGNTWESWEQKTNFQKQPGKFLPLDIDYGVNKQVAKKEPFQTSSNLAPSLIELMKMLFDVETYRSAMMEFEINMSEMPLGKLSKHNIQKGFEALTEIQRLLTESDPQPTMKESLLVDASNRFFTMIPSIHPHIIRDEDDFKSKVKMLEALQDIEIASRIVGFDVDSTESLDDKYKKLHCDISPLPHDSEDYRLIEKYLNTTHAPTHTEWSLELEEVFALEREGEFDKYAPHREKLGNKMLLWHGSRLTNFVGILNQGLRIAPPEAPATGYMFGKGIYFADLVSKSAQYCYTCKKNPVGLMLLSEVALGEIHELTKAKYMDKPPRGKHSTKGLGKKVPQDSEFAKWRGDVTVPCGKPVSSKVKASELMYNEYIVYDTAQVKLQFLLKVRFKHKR

AtPARP2 (TRXH-AtPARP2) = target: T2, AtPARP2 (TRXH-AtPARP2) (Arabidopsis thaliana, UniProt Q11207); test: as above; format: biochemical; conditions: 1 mM NAD+, 500 nM broken DNA, 25 °C, pH 7.5, Mg2+
T2 construct: gene PARP2; an MBP/MBD fusion was also tested
T2 sequence (Q11207 whole entry, the tested form may be a part): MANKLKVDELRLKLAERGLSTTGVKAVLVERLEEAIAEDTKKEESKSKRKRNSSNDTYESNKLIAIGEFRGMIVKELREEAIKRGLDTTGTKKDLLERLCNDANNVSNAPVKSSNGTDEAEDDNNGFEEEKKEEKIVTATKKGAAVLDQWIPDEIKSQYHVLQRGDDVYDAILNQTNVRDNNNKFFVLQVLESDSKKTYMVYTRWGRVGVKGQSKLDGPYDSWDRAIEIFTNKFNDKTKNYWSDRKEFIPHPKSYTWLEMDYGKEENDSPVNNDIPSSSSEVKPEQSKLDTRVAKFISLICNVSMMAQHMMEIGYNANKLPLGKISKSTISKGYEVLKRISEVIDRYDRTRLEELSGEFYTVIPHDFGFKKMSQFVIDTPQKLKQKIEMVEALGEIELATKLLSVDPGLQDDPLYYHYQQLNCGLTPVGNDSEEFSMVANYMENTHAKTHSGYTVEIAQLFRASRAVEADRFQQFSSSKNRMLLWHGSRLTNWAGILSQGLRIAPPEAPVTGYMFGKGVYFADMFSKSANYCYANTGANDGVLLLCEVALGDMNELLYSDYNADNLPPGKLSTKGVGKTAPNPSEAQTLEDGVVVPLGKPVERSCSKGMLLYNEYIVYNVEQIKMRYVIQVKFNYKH

Structure (SMILES)	auto-PARylation assay, immunoblot with anti-pan-ADPR reagent (AtPARP1 (TRXH-AtPARP1))	auto-PARylation assay, immunoblot with anti-pan-ADPR reagent (AtPARP2 (TRXH-AtPARP2))
NC(=O)c1cccc(N)c1 [3-AB]	The signal was abolished by the PARP inhibitor 3-AB	
NC(=O)c1ccc[n+]([C@@H]2O[C@H](COP(=O)(O)OP(=O)(O)OC[C@H]3O[C@@H](n4cnc5c(N)ncnc54)[C@H](O)[C@@H]3O)[C@@H](O)[C@H]2O)c1 [NAD^+]		AtPARP2 produced shorter PAR chains than AtPARP1 within the same incubation time periods
